From PubChem BioAssay AID1918994 (Molecular Pharmacology Branch, DTP, NCI, 2023)

Test system: 292921-168-R-J2-PDC complex spheroid growth
Test: Anticancer human tumor 292921-168-R-J2-PDC patient-derived pancreatic carcinoma cell line growth inhibition [AhR]
Settings: for IC50: curve of first compound; for viability, T/C: stronger effect = lower value
How it was run: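 Spheroids combined tumor cells with HUVEC endothelial cells and human MSCs as stroma. AhR antagonists were paired with standard or investigational drugs, each dosed in half-log steps down from near clinical Cmax, or from 10 microM where Cmax was unknown.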

[1] = second compound 0.1 µM, first compound 0.0316 µM
[2] = second compound 0.1 µM, first compound 0.1 µM
[3] = second compound 0.1 µM, first compound 0.316 µM
[4] = second compound 0.1 µM, first compound 1 µM
[5] = second compound 0.1 µM, first compound 3.16 µM
[6] = second compound 0.1 µM, first compound 10 µM
[7] = second compound 0.316 µM, first compound 0.0316 µM
[8] = second compound 0.316 µM, first compound 0.1 µM
[9] = second compound 0.316 µM, first compound 0.316 µM
[10] = second compound 0.316 µM, first compound 1 µM
[11] = second compound 0.316 µM, first compound 3.16 µM
[12] = second compound 0.316 µM, first compound 10 µM
[13] = second compound 1 µM, first compound 0.0316 µM
[14] = second compound 1 µM, first compound 0.1 µM
[15] = second compound 1 µM, first compound 0.316 µM
[16] = second compound 1 µM, first compound 1 µM
[17] = second compound 1 µM, first compound 3.16 µM
[18] = second compound 1 µM, first compound 10 µM
[19] = second compound 3.16 µM, first compound 0.0316 µM
[20] = second compound 3.16 µM, first compound 0.1 µM
[21] = second compound 3.16 µM, first compound 0.316 µM
[22] = second compound 3.16 µM, first compound 1 µM
[23] = second compound 3.16 µM, first compound 3.16 µM
[24] = second compound 3.16 µM, first compound 10 µM
[25] = second compound 10 µM, first compound 0.0316 µM
[26] = second compound 10 µM, first compound 0.1 µM
[27] = second compound 10 µM, first compound 0.316 µM
[28] = second compound 10 µM, first compound 1 µM
[29] = second compound 10 µM, first compound 3.16 µM
[30] = second compound 10 µM, first compound 10 µM
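Note: spheroids exposed to compounds for seven days after three days of growth.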

## CC1(C)CCC(CN2CCN(c3ccc(C(=O)NS(=O)(=O)c4ccc(NCC5CCOCC5)c([N+](=O)[O-])c4)c(Oc4cnc5[nH]ccc5c4)c3)CC2)=C(c2ccc(Cl)cc2)C1 + Cc1cncc(-c2nc(NCCc3c[nH]c4ccccc34)c3ncn(C(C)C)c3n2)c1
Second compound 0.1 µM
  IC50: 6.87 µM
Second compound 0.316 µM
  IC50: 6.72 µM
Second compound 1 µM
  IC50: 6.79 µM
Second compound 3.16 µM
  IC50: 5.56 µM
Second compound 10 µM
  IC50: 3.33 µM
[1]
  viability, T/C: 101%
[2]
  viability, T/C: 96.2%
[3]
  viability, T/C: 92.9%
[4]
  viability, T/C: 105%
[5]
  viability, T/C: 99.4%
[6]
  viability, T/C: 26.2%
[7]
  viability, T/C: 96.6%
[8]
  viability, T/C: 104%
[9]
  viability, T/C: 105%
[10]
  viability, T/C: 90.6%
[11]
  viability, T/C: 95.1%
[12]
  viability, T/C: 26.1%
[13]
  viability, T/C: 80.2%
[14]
  viability, T/C: 91.7%
[15]
  viability, T/C: 90.1%
[16]
  viability, T/C: 96.5%
[17]
  viability, T/C: 102%
[18]
  viability, T/C: 28.6%
[19]
  viability, T/C: 67.9%
[20]
  viability, T/C: 76.3%
[21]
  viability, T/C: 80.6%
[22]
  viability, T/C: 77.6%
[23]
  viability, T/C: 79.7%
[24]
  viability, T/C: 22.3%
[25]
  viability, T/C: 54.9%
[26]
  viability, T/C: 52.7%
[27]
  viability, T/C: 52.9%
[28]
  viability, T/C: 50%
[29]
  viability, T/C: 51.4%
[30]
  viability, T/C: 26.8%

## COc1cc(Nc2ncc3c(n2)-c2ccc(Cl)cc2C(c2c(F)cccc2OC)=NC3)ccc1C(=O)O + Cc1cncc(-c2nc(NCCc3c[nH]c4ccccc34)c3ncn(C(C)C)c3n2)c1
Second compound 0.1 µM
  IC50: < 0.0316 µM
Second compound 0.316 µM
  IC50: < 0.0316 µM
Second compound 1 µM
  IC50: < 0.0316 µM
Second compound 3.16 µM
  IC50: < 0.0316 µM
Second compound 10 µM
  IC50: < 0.0316 µM
[1]
  viability, T/C: 50.6%
[2]
  viability, T/C: 45%
[3]
  viability, T/C: 50%
[4]
  viability, T/C: 45.6%
[5]
  viability, T/C: 46.1%
[6]
  viability, T/C: 33.5%
[7]
  viability, T/C: 49.9%
[8]
  viability, T/C: 43.3%
[9]
  viability, T/C: 52%
[10]
  viability, T/C: 45.9%
[11]
  viability, T/C: 46.5%
[12]
  viability, T/C: 33.2%
[13]
  viability, T/C: 46.7%
[14]
  viability, T/C: 40.3%
[15]
  viability, T/C: 47.8%
[16]
  viability, T/C: 44.3%
[17]
  viability, T/C: 41.9%
[18]
  viability, T/C: 30.4%
[19]
  viability, T/C: 44.6%
[20]
  viability, T/C: 38.7%
[21]
  viability, T/C: 42.4%
[22]
  viability, T/C: 39.3%
[23]
  viability, T/C: 35.5%
[24]
  viability, T/C: 28%
[25]
  viability, T/C: 40.4%
[26]
  viability, T/C: 35%
[27]
  viability, T/C: 38.5%
[28]
  viability, T/C: 35.4%
[29]
  viability, T/C: 32.4%
[30]
  viability, T/C: 26.3%
